Usually IC50 stands for the concentration that gives 50% inhibition.

Test [1] relates to Rattus norvegicus. Kind of test: Anesthetic activity in rat at 0.5 uMol/site assessed as duration of full recovery of sensory block. It counts as functional.
Test [2] deals with Rattus norvegicus. As to the kind of experiment: Anesthetic activity in rat at 2.0 uMol/site assessed as duration of full recovery of sensory block. It counts as functional.
Test [3] concerns Rattus norvegicus. Kind of test: Anesthetic activity in rat at 1.0 uMol/site assessed as duration of full recovery of sensory block. It counts as functional.
For test [4], the system named is Rattus norvegicus. Kind of test: Anesthetic activity in rat at 4.0 uMol/site assessed as duration of full recovery of sensory block. In kind it is functional.
The test system of test [5] is Ileum. Kind of test: Antispasmodic activity in guinea pig ileum assessed as inhibition of allergen-induced contraction. In kind it is functional, tissue-based. The following applies: Cavia porcellus.
In test [6] the test system is Ileum. As to the kind of experiment: Antispasmodic activity in guinea pig ileum assessed as inhibition of histamine-induced contraction. It counts as functional, tissue-based. The following applies: Cavia porcellus.
A short description of test [7]: Activity at sodium channel assessed as blockade of sodium current.

Consider `CCN(CC)CC(=O)Nc1cccc(C(F)(F)F)c1`, for which the Time in test [1] is listed as 17 min; in test [2], 18 min; in test [3], 19 min; in test [4], 18 min.

`CCN(CC)CC(=O)Nc1cccc(C)c1C`: the Time came to 7 min in test [1], 25 min in test [2], 16 min in test [3] and 34 min in test [4]. Moreover, the IC50 in test [5] worked out at 330 µM; in test [6], 380 µM.

With `CCN(CC)CCC(=O)Nc1ccc(C)cc1C`, the Time in test [1] was found to be 35 min; in test [2], 166 min; in test [3], 89 min; in test [4], 239 min.

`CCN(CC)CC(=O)Nc1ccc(C(F)(F)F)cc1`: the Time in test [1] was 19 min; in test [2], 19 min; in test [3], 19 min; in test [4], 21 min.

For `CCN(CC)CC(=O)Nc1cc(C)ccc1C`, the Time is listed as 19 min in test [1], 40 min in test [2], 28 min in test [3] and 54 min in test [4]. For the same molecule, the figures for the IC50 in test [5] and in test [6] were 120 µM and 140 µM, respectively.

For the molecule `CCN(CC)CC(=O)Nc1cc(C)cc(C)c1`, the Time in test [1] is on record as 44 min; in test [2], 134 min; in test [3], 91 min; in test [4] it was 181 min.

Regarding `CCN(CC)CC(=O)Nc1ccc(C)c(C)c1`, the Time is given as 11 min in test [1], 32 min in test [2], 20 min in test [3] and 55 min in test [4].

On to `CCN(CC)CCC(=O)Nc1cccc(C)c1C`, for which the Time in test [1] is 22 min; in test [2] it was 91 min; in test [3] it was 49 min; in test [4] it was 139 min.

With `CCN(CC)CCC(=O)Nc1cc(C)cc(C)c1`, the Time stood at 88 min in test [1], 240 min in test [2], 118 min in test [3] and 377 min in test [4].

On to `CCN(CC)CC(=O)Nc1c(C)cccc1C` [LIDOCAINE], for which the Time in test [1] was determined as 37 min; in test [2], 103 min; in test [3] it was 74 min; in test [4] it was 164 min. For the same molecule, the 50% inhibitory concentration (IC50) in test [5] was found to be 1430 µM; in test [7] it was 180 µM; in test [6], 1410 µM.

`CCN(CC)CC(=O)Nc1ccccc1C(F)(F)F`: the Time in test [1] is 8 min; in test [2], 15 min; in test [3], 13 min; in test [4], 24 min. The IC50 in test [5] came out at 50 µM; in test [7], 25400 µM; in test [6], 100 µM.

Take `CCN(CC)CC(=O)Nc1ccc(C)cc1C`: the Time is given as 17 min in test [1], 63 min in test [2], 32 min in test [3] and 92 min in test [4]. Besides, the values for the half-inhibitory concentration (IC50) in test [5] and in test [6] were 190 µM and 310 µM, respectively.

Turning to `CCN(CC)CC(=O)Nc1ccccc1C`, the Time in test [1] is recorded as 17 min; in test [2], 48 min; in test [3], 28 min; in test [4] it was 63 min. The IC50 in test [5] and in test [6] was 160 µM each time.

For `CCN(CC)CCC(=O)Nc1cc(C)ccc1C`, the Time in test [1] turned out to be 22 min; in test [2] it was 72 min; in test [3], 47 min; in test [4] it was 101 min.

In the case of `CCN(CC)CCC(=O)Nc1c(C)cccc1C`, the Time in test [1] was 72 min; in test [2], 194 min; in test [3] it was 107 min; in test [4], 311 min.

For the molecule `CCN(CC)CCC(=O)Nc1ccc(C)c(C)c1`, the Time in test [1] came to 26 min; in test [2] it was 80 min; in test [3], 48 min; in test [4] it was 107 min.

Values taken from ChEMBL document CHEMBL1142329, “Synthesis and antispasmodic activity of lidocaine derivatives endowed with reduced local anesthetic action” (Bioorg Med Chem Lett, 2008).
